Measurements published in US20140220058A1, “VACCINE COMPOSITION FOR TRANSDERMAL OR MUCOSAL ADMINISTRATION” (NITTO DENKO CORPORATION, priority 2013, published 2014).
“Also recorded” adds a separate entry of the source.

Legend:
[1] = system: IFN-γ producing cells; assay: Promotion of immunity induction using a mucosal vaccine (conclusion from Tables 4, 5 and 6); assay type: in vivo, mouse; conditions: acid as component of sublingual liquid formulations
[2] = system: IFN-γ producing cells; assay: Promotion of immunity induction via transdermal immunization (conclusion from Tables 1, 2, 3, 8 and 10); assay type: in vivo, mouse; conditions: acid as component of tape, liquid or cream formulations

SMILES | promotion of immunity induction using a mucosal vaccine (in words) [1] | promotion of immunity induction via transdermal immunization (in words) [2]
O=C(O)CC(O)(CC(=O)O)C(=O)O [citric acid] | suitable; also recorded: particularly preferable | 
CCCCCCCCCC(=O)O [decanoic acid] |  | suitable; also recorded: particularly preferable
CC(C)CCCCCCCCCCCCCCC(=O)O [isostearic acid] | suitable; also recorded: particularly preferable | suitable; also recorded: preferable
CC(O)C(=O)O (stereo not shown) [lactic acid] | suitable; also recorded: particularly preferable | suitable; also recorded: particularly preferable
CCCCCCCCCCCC(=O)O [lauric acid] |  | suitable; also recorded: particularly preferable
O=C(O)/C=C\C(=O)O [maleic acid] | suitable; also recorded: preferable | suitable; also recorded: preferable
O=C(O)CC(O)C(=O)O (stereo not shown) [malic acid] | suitable | suitable; also recorded: preferable
CS(=O)(=O)O [methanesulfonic acid] |  | suitable; also recorded: particularly preferable
CCCCCCCCCCCCCC(=O)O [myristic acid] | suitable; also recorded: particularly preferable | suitable; also recorded: particularly preferable
CCCCCCCC/C=C\CCCCCCCC(=O)O [oleic acid] |  | suitable; also recorded: preferable
CCCCCCCCCCCCCCCC(=O)O [palmitic acid] |  | suitable; also recorded: particularly preferable
O=C(O)c1ccccc1O [salicylic acid] | suitable | suitable; also recorded: particularly preferable
CCCCCCCCCCCCCCCCCC(=O)O [stearic acid] |  | suitable; also recorded: particularly preferable
